{
  "source": "patent US9351963B2",
  "about": "“Defensin-like molecules as novel antimicrobial agents” (UNIVERSITY OF MARYLAND, BALTIMORE, priority 2010, dated 2016)",
  "key": {"[1]": {"experiment": "Surface Plasmon Resonance binding to immobilized 3-Lipid II (BIAcore)", "conditions": "defensin mimetics at 10 μM, immobilized 3-Lipid II, 25° C.", "procedure": "Short-chain water-soluble Lipid II containing a lipid tail of three isoprene units was generated and purified essentially as described (Breukink, E., van Heusden, H. E., Vollmerhaus, P. J., Swiezewska, E., Brunner, L., Walker, S., Heck, A. J., and de Kruijff, B. (2003) J Biol Chem 278, 19898-19903). Typically, M. flavus vesicles (120 μmol lipid-Pi) were incubated together with 500 μmol UDP-GlcNAc, 500 μmol UDP-MurNAC-pentapeptide and 400 μmol farnesyl phosphate (3-P) in 100 mM Tris-HCl pH 8.0, 5 mM MgCl2. The incubation lasted two hours at room temperature for 3-P. The synthesis of 3-Lipid II was followed using RP-8 reversed phase TLC (Merck) developed in 75% methanol. For purification, the membranes were removed by centrifugation at 40,000×g and the supernatant was collected and loaded on a C18 HPLC column and eluted with a linear gradient from 50 mM ammonium bicarbonate to 100% methanol in 30 minutes. Farnesyl-Lipid II (3-Lipid II) eluted at approximately 60% methanol. Its identity was confirmed by mass spectroscopy.\nSurface Plasmon Resonance binding experiments were carried out on a BIAcore T100 system (BIAcore Inc., Piscataway, N.Y.) at 25° C. The assay buffer was 10 mM HEPES, 150 mM NaCl, 0.05% surfactant P20, pH 7.4 (±3 mM EDTA) supplemented with 10% DMSO. […] For initial determination of binding, defensin mimetics were introduced into the flow-cells (30 μl/min) in the running buffer at 10 μM. Resonance signals were corrected for nonspecific binding by subtracting the background of the control flow-cell. After each analysis, the sensor chip surfaces were regenerated with 50 mM NaOH for 30 s at a flow rate 100 μl/min, and equilibrated with the buffer prior to next injection. For binding kinetics studies, binding isotherms were analyzed with manufacturer-supplied software for BIAcore T100."}, "[2]": {"tested_on": "Escherichia coli ATCC 25922", "experiment": "96-well turbidimetric antibacterial killing assay, E. coli", "format": "cell-based", "conditions": "E. coli", "procedure": "The antibacterial activity of defensin mimetics against Staphylococcus aureus ATCC 29213 and Escherichia coli 25922 was carried out in a 96-well turbidimetric assay essentially as described (Ericksen, B., Wu, Z., Lu, W., and Lehrer, R. I. (2005) Antimicrob Agents Chemother 49, 269-275) with the following modifications: compounds were exposed for 30 min to […] prior to addition of […] in 10 mM phosphate buffer containing 5% DMSO. Bacterial growth was monitored for 12 hours and data were analyzed as described (Ericksen, et al). Determination of MICs was performed by Micromyx, LLC (Kalamazoo, Mich.) according to CLSI standards (CLSI. (2009) Methods for Dilution Antimicrobial Susceptibility Tests for Bacteria That Grow Aerobically; Approved Standard—Eighth Edition.)\nThe inventors have previously reported on the antibacterial activity of HNP1 and all of its structurally uncompromised single alanine mutants against S. aureus (Wei, G., Pazgier, M., de Leeuw, E., Rajabi, M., Li, J., Zou, G., Jung, G., Yuan, W., Lu, W. Y., Lehrer, R. I., and Lu, W. J Biol Chem 285, 16275-16285). […] If these residues are indeed important for Lipid II binding, one would expect that replacement by alanine will not affect killing of Gram-negative bacteria. […] In particular, FIG. 12 depicts killing of E. coli by HNP-1 Lipid II single alanine mutants. Survival curves of E. coli ATCC 25922 exposed to HNP-1 or HNP-1 single alanine mutants at concentrations varying two-fold from […]. Bacteria were exposed to defensin peptides for 120 min. Each curve is the mean of two separate experiments (±S.D.). Points scored as zero survival could not be plotted."}, "[3]": {"tested_on": "S. aureus ATCC 29213", "experiment": "Murine peritoneal sepsis model", "format": "in vivo, C57BL/6J mice", "procedure": "Adult C57BL/6J mice (˜18 grams, 8-10 weeks old) were used for all experiments. Mice were obtained from the Jackson Laboratory (Bar Harbour, Me., USA) and housed in the IHV SPC animal core facility. Mice were fed standard chow (Harlan Laboratories) and water ad libitum. To assess the protective potency of defensin mimetic BAS00127538, groups of 5 mice were inoculated intraperitoneally ˜10^7 CFU/mL of S. aureus ATCC 29213 in 500 μL saline solution/25% DMSO plus 4.5% (w/v) porcine gastric mucin (Sigma Chemical Co., St Louis, Mo.). Infected animals (n=5) were subsequently treated by intra-peritoneal injection 1 and 4 hours post-infection with 2.5 mg/kg of compound in 100 μL sterile saline solution plus 25% DMSO (V/V), vancomycin/lysostaphin (5 mg/kg, saline solution/25% DMSO) or vehicle (saline solution/25% DMSO) as positive and negative controls respectively. Animals were closely observed during a period of 24 hours and mice that show signs of severe sepsis were humanely euthanized. Blood samples were collected by retro-orbital puncture at the indicated intervals post-infection using lithium-heparin polystyrene tubes to prevent coagulation. Spleens were harvested aseptically, weighed and homogenized in 500 μl of sterile saline solution using an IKA T10 basic disperser (IKA, Wilmington N.C.). Whole blood samples and spleen homogenates were serially diluted and plated onto LB agar plates. Bacterial counts were determined following 24 h incubation at 37° C. and expressed as CFU per milliliter for blood and CFU per gram for spleen.\nNext, a murine model for sepsis was established to evaluate the efficacy of the lead defensin mimetics as antibiotic agents in vivo. […] Mice (n=5) were inoculated intraperitoneally with S. aureus 29213 and treated 1 h and 4 h post-infection with compound BAS00127538 at 2.5 mg/kg intraperitoneally Animals were monitored for survival and blood and spleen samples were collected. Bacterial counts were determined and compared to control treatment with vancomycin/lysostaphin as measures of efficacy (FIG. 6)."}, "[4]": {"tested_on": "S. aureus ATCC 29213", "experiment": "Murine peritoneal sepsis model", "format": "in vivo, C57BL/6J mice", "conditions": "5 mg/kg intraperitoneally, preliminary experiments (not shown)"}},
  "data": [
    {"compound": "CN1/C(=C/C=C/c2cc(-c3ccccc3)cc(-c3ccccc3)[o+]2)C(C)(C)c2ccccc21", "note": "[BAS00127538, 2,4-diphenyl-6-[(1E)-3-[(2E)-1,3,3-trimethyl-2,3-dihydro-1H-indol-2-ylidene]prop-1-en-1-yl]-1$1^4-pyran-1-ylium]", "values": [
      {"measurement": "Binding to Lipid II as measured by SPR", "setting": "[1]", "value": "most strongly bound"},
      {"measurement": "Concentration at which compound was 100% bactericidal against E. coli", "setting": "[2]", "value": 7.8, "unit": "µM"},
      {"measurement": "Bacterial counts in spleen and blood", "setting": "[3]; 2.5 mg/kg intraperitoneally 1 h and 4 h post-infection", "value": "significantly reduced"},
      {"measurement": "Survival of animals", "setting": "[3]; 2.5 mg/kg intraperitoneally 1 h and 4 h post-infection, n=5 mice", "value": "4 out of five"},
      {"measurement": "Efficacy in vivo in a murine model for sepsis", "setting": "[3]; mouse, in vivo", "value": "proven effective"},
      {"measurement": "Clearing non-lethal doses of S. aureus 29213", "setting": "[4]", "value": "most efficacious"}
    ]}
  ]
}
